The structures appear in SMILES notation.

In this assay the target is mGluR4 (UniProt Q14833). The assay can be described thus: mGluR4 potentiation assay (EC50 for potentiation at EC20 agonist; fluorometric plate reader, Ca2+ or thallium dye). Particulars: potentiation of mGluR4; species of receptor not given. It is filed as cell-based. As to the method: The disclosed compounds and compositions can be evaluated for their ability to act as a potentiator of metabotropic glutamate receptor activity, in particular mGluR4 activity, by any suitable known methodology known in the art. For example, Chinese Hamster Ovary (CHO) cells transacted with human mGluR4 or HEK cells co-transfected with rat mGluR4 and the G-protein regulated Inwardly Rectifying Potassium channel (GIRK) were plated in clear bottom assay plates for assay in a Hamamatsu FDSS Fluorometric Plate Reader. The cells were loaded with either a Ca2+-sensitive fluorescent dye or the thallium responsive dye and the plates were washed and placed into a suitable kinetic plate reader. For human mGluR4 assays, a fluorescence baseline was established for 3-5 seconds, the disclosed compounds were then added to the cells, and the response in cells was measured. Approximately two and a half minutes later, a concentration of mGluR4 orthosteric agonist (e.g. glutamate or L-AP4) eliciting approximately 20% (EC20) of the maximal agonist response was added to the cells, and the response was measured. Two minutes later, a concentration of mGluR4 agonist (e.g. glutamate or L-AP4) eliciting 80% (EC80) of the maximal agonist response was added to the cells, and the response was measured. For rat mGluR4/GIRK experiments, a baseline was established for approximately five seconds, disclosed compounds were added, and either an EC20 or EC80 concentration of agonist was added approximately two and one half minutes later. Potentiation of the agonist response of mGluR4 by the disclosed compounds was observed as an increase in response to the EC20 concentration of agonist in the presence of compound compared to the response to agonist in the absence of compound. Similarly, antagonism of the agonist response of mGluR4 by the disclosed compounds was observed as a decrease in response to the EC80 concentration of agonist in the presence of compound compared to the response to agonist in the absence of compound.
The above described assay operated in two modes. In the first mode, a range of concentrations of the disclosed compounds are added to cells, followed by a single fixed concentration of agonist. If the compound acts as a potentiator, an EC50 so value for potentiation and a maximum extent of potentiation by the compound at this concentration of agonist is determined by non-linear curve fitting. If the compound acts as a noncompetitive antagonist, an IC50 value is determined by non-linear curve fitting. In the second mode, several fixed concentrations of the disclosed compounds are added to various wells on a plate, followed by a range in concentrations of agonist for each concentration of disclosed compound. The EC50 values for the agonist at each concentration of compound are determined by non-linear curve fitting. A decrease in the EC50 value of the agonist with increasing concentrations of the sample compound (a leftward shift of the agonist concentration-response curve) is an indication of the degree of mGluR4 potentiation at a given concentration of the sample compound. A decrease in the maximal response of the agonist with increasing concentrations of the sample compounds, with or without a rightward shift in agonist potency, is an indication of the degree of noncompetitive antagonism at mGluR4. The second mode also indicates whether the sample compounds also affect the maximum response to mGluR4 to agonists.
By EC50 is commonly meant the concentration needed to bring the measured effect to its halfway point. With `CC(C)(C)Cc1noc2cc(Nc3n[nH]c4cccnc34)cnc12` [Example 171, 3-(2,2-dimethylpropyl)-N-(1H-pyrazolo[4,3-b]pyridin-3-yl)isoxazolo[4,5-b]pyridin-6-amine], the EC50 was 801 nM.

Consider `CC(C)(C)Cc1noc2cc(Nc3n[nH]c4ncc(F)cc34)cc(F)c12` [Example 150, 3-(2,2-dimethylpropyl)-4-fluoro-N-(5-fluoro-1H-pyrazolo[3,4-b]pyridin-3-yl)-1,2-benzoxazol-6-amine], for which the EC50 was over 10000 nM.

As to `CC(C)(C)CNC(c1noc2cc(Nc3n[nH]c4cccnc34)ccc12)C(F)(F)F` (stereo not drawn) [Example 181, 3-[1-(2,2-dimethylpropylamino)-2,2,2-trifluoro-ethyl]-N-(1H-pyrazolo[4,3-b]pyridin-3-yl)-1,2-benzoxazol-6-amine; 2,2,2-trifluoroacetic acid], the EC50 is 1500 nM.

For the molecule `CC(C)(C)Cc1noc2cc(Nc3n[nH]c4ncccc34)ccc12` [Example 20, 3-neopentyl-N-(1H-pyrazolo[3,4-b]pyridin-3-yl)benzo[d]isoxazol-6-amine], the EC50 amounted to 3100 nM.

For `c1cnc2c(Nc3ccc4c(C5CCCC5)noc4c3)n[nH]c2n1` [Example 7, 3-cydopentyl-N-(1H-pyrazolo[3,4-b]pyrazin-3-yl)benzo[d]isoxazol-6-amine], the EC50 came to 527 nM.

Take `CC(C)(C)Cc1noc2c(F)c(Nc3n[nH]c4cccnc34)ccc12` [Example 163, 3-(2,2-dimethylpropyl)-7-fluoro-N-(1H-pyrazolo[4,3-b]pyridin-3-yl)-1,2-benzoxazol-6-amine]: the EC50 is over 30000 nM.

Turning to `Fc1cncc(OCc2noc3cc(Nc4n[nH]c5cccnc45)ccc23)c1` [Example 176, 3-[(5-fluoro-3-pyridyl)oxymethyl]-N-(1H-pyrazolo[4,3-b]pyridin-3-yl)-1,2-benzoxazol-6-amine], the EC50 is 767 nM.

For `O=C(NC1CC(F)C1)c1noc2cc(Nc3n[nH]c4cccnc34)ccc12` (stereo not drawn) [Example 54, N-(3-fluorocyclobutyl)-6-(1H-pyrazolo[4,3-b]pyridin-3-ylamino)-1,2-benzoxazol-3-carboxamide], the EC50 turned out to be 764 nM.

As for `CC(c1ccc2c(cnn2C)c1)c1noc2cc(Nc3n[nH]c4cccnc34)ccc12` (stereo not drawn) [Example 31, 3-(1-(1-methyl-1H-indazol-5-yl)ethyl)-N-(1H-pyrazolo[4,3-b]pyridin-3-yl)benzo[d]isoxazol-6-amine], the EC50 was 645 nM.

As to `c1cnc2[nH]nc(Nc3ccc4c(C5CCCC5)noc4c3)c2c1` [Example 5, 3-cyclopentyl-N-(1H-pyrazolo[3,4-b]pyridin-3-yl)benzo[d]isoxazol-6-amine], the EC50 was 2400 nM.

Consider `C[C@@H](NCc1noc2cc(Nc3n[nH]c4cccnc34)ccc12)C(C)(C)C` [Example 79, N-(1H-pyrazolo[4,3-b]pyridin-3-yl)-3-[[[(1R)-1,2,2-trimethylpropyl]amino]methyl]-1,2-benzoxazol-6-amine], for which the EC50 amounted to 622 nM.

Regarding `c1cnc2c(Nc3ccc4c(C5CCCC5)noc4c3)n[nH]c2c1` [Example 2, 3-cyclopentyl-N-(1H-pyrazolo[4,3-b]pyridin-3-yl)benzo[d]isoxazol-6-amine], the EC50 stood at 523 nM.

With `CC1(COc2noc3cc(Nc4n[nH]c5cccnc45)ccc23)COC1` [Example 41, 3-[(3-methyloxetan-3-yl)methoxy]-N-(1H-pyrazolo[4,3-b]pyridin-3-yl)-1,2-benzoxazol-6-amine], the EC50 turned out to be 2820 nM.

On to `CC(c1ccccn1)N(C)C(=O)Cc1noc2cc(Nc3n[nH]c4cccnc34)ccc12` (stereo not drawn) [Example 165, N-methyl-2-[6-(1H-pyrazolo[4,3-b]pyridin-3-ylamino)-1,2-benzoxazol-3-yl]-N-[1-(2-pyridyl)ethyl]acetamide], for which the EC50 was determined as 2300 nM.

Consider `CC(C)c1noc2cc(Nc3n[nH]c4cccnc34)ccc12` [Example 155, 3-isopropyl-N-(1H-pyrazolo[4,3-b]pyridin-3-yl)-1,2-benzoxazol-6-amine], for which the EC50 was found to be 976 nM.

As for `c1cnc2c(Nc3ccc4c(CN5CCOCC5)noc4c3)n[nH]c2c1` [Example 133, 3-(morpholinomethyl)-N-(1H-pyrazolo[4,3-b]pyridin-3-yl)-1,2-benzoxazol-6-amine; 2,2,2-trifluoroacetic acid], the EC50 was determined as 5770 nM.

For the molecule `c1cnc2c(Nc3ccc4c(C5CCC5)noc4c3)n[nH]c2n1` [Example 4, 3-cyclobutyl-N-(1H-pyrazolo[3,4-b]pyrazin-3-yl)benzo[d]isoxazol-6-amine], the EC50 was 683 nM.

On to `Cc1noc2ccc(Nc3n[nH]c4cccnc34)cc12` [Example 22, 3-methyl-N-(1H-pyrazolo[4,3-b]pyridin-3-yl)benzo[d]isoxazol-5-amine], for which the EC50 came out at 76 nM.

Take `CC(C)(C)Cc1noc2cc(Nc3n[nH]c4ccccc34)ccc12` [Example 17, N-(1H-indazol-3-yl)-3-neopentylbenzo[d]isoxazol-6-amine]: the EC50 was over 10000 nM.

On to `CCc1noc2cc(Nc3n[nH]c4ccccc34)ccc12` [Example 18, 3-ethyl-N-(1H-imdazol-3-yl)benzo[d]isoxazol-6-amine], for which the EC50 is 1940 nM.

`O=C(Cc1noc2cc(Nc3n[nH]c4cccnc34)ccc12)N1CCOCC1` [Example 143, 1-morpholino-2-[6-(1H-pyrazolo[4,3-b]pyridin-3-ylamino)-1,2-benzoxazol-3-yl]ethanone]: the EC50 came out at 1360 nM.

Turning to `CCc1noc2ccc(Nc3n[nH]c4cccnc34)cc12` [Example 25, 3-ethyl-N-(1H-pyrazolo[4,3-b]pyridin-3-yl)benzo[d]isoxazol-5-amine], the EC50 is over 10000 nM.

For `CCc1noc2cc(Nc3n[nH]c4ncccc34)ccc12` [Example 15, 3-ethyl-N-(1H-pyrazolo[3,4-b]pyridin-3-yl)benzo[d]isoxazol-6-amine], the EC50 came out at 2100 nM.

As for `CCCCC(F)(F)c1noc2cc(Nc3n[nH]c4cccnc34)ccc12` [Example 136, 3-(1,1-difluoropentyl)-N-(1H-pyrazolo[4,3-b]pyridin-3-yl)-1,2-benzoxazol-6-amine], the EC50 is over 10000 nM.

Take `CCc1noc2cc(Nc3n[nH]c4nccnc34)ccc12` [Example 19, 3-ethyl-N-(1H-pyrazolo[3,4-b]pyrazin-3-yl)benzo[d]isoxazol-6-amine]: the 50% effective concentration (EC50) is 1310 nM.

With `CCCCC(C)(F)c1noc2cc(Nc3n[nH]c4cccnc34)ccc12` (stereo not drawn) [Example 134, 3-(1-fluoro-1-methyl-pentyl)-N-(1H-pyrazolo[4,3-b]pyridin-3-yl)-1,2-benzoxazol-6-amine], the EC50 came to 2660 nM.

Consider `CC(C)(C)C(F)c1noc2cc(Nc3n[nH]c4cccnc34)ccc12` (stereo not drawn) [Example 146, 3-(1-fluoro-2,2-dimethyl-propyl)-N-(1H-pyrazolo[4,3-b]pyridin-3-yl)-1,2-benzoxazol-6-amine], for which the EC50 was found to be 2110 nM.

With `Cc1noc2c(F)cc(Nc3n[nH]c4cccnc34)cc12` [Example 105, 7-fluoro-3-methyl-N-(1H-pyrazolo[4,3-b]pyridin-3-yl)-1,2-benzoxazol-5-amine], the EC50 is 77.1 nM.

For `ClC1(c2noc3cc(Nc4n[nH]c5cccnc45)ccc23)CCC1` [Example 6, 3-(1-chlorocyclobutyl)-N-(1H-pyrazolo[4,3-b]pyridin-3-yl)benzo[d]isoxazol-6-amine], the concentration for a half-maximal effect (EC50) was over 10000 nM.

`CC(c1ccc(=O)[nH]c1)c1noc2cc(Nc3n[nH]c4cccnc34)ccc12` (stereo not drawn) [Example 139, 5-[1-[6-(1H-pyrazolo[4,3-b]pyridin-3-ylamino)-1,2-benzoxazol-3-yl]ethyl]-1H-pyridin-2-one]: the EC50 was over 10000 nM.

As for `Cc1noc2c(F)cc(Nc3n[nH]c4ncccc34)cc12` [Example 107, 7-fluoro-3-methyl-N-(1H-pyrazolo[3,4-b]pyridin-3-yl)-1,2-benzoxazol-5-amine], the EC50 was 53.1 nM.

With `ClC1(c2noc3cc(Nc4n[nH]c5nccnc45)ccc23)CCC1` [Example 8, 3-(1-chlorocyclobutyl)-N-(1H-pyrazolo[3,4-b]pyrazin-3-yl)benzo[d]isoxazol-6-amine], the EC50 is 185 nM.

For the molecule `CC(C)Cc1noc2cc(Nc3n[nH]c4ccccc34)ccc12` [Example 10, N-(1H-indazol-3-yl)-3-isobutylbenzo[d]isoxazol-6-amine], the EC50 is over 10000 nM.

These data come from patent publication US9980945B2, “Benzoisoxazole-substituted compounds as MGLUR4 allosteric potentiators, compositions, and methods of treating neurological dysfunction” (Vanderbilt University, priority 2015, dated 2018).
